Data: article PMC6121621, “A Short Half-Life αIIbβ3 Antagonist ANTP266 Reduces Thrombus Formation” (International Journal of Molecular Sciences, 2018)

Target: T1, integrin αIIbβ3 (Homo sapiens, UniProt P05106+P08514)
T1 construct: gene ITGA2B; Purified human integrin αIIbβ3; with integrin β3 (ITGB3, P05106)
Experiment: ELISA: inhibition of purified human αIIbβ[…] binding to immobilized fibrinogen

T1 sequence (P08514 32-887): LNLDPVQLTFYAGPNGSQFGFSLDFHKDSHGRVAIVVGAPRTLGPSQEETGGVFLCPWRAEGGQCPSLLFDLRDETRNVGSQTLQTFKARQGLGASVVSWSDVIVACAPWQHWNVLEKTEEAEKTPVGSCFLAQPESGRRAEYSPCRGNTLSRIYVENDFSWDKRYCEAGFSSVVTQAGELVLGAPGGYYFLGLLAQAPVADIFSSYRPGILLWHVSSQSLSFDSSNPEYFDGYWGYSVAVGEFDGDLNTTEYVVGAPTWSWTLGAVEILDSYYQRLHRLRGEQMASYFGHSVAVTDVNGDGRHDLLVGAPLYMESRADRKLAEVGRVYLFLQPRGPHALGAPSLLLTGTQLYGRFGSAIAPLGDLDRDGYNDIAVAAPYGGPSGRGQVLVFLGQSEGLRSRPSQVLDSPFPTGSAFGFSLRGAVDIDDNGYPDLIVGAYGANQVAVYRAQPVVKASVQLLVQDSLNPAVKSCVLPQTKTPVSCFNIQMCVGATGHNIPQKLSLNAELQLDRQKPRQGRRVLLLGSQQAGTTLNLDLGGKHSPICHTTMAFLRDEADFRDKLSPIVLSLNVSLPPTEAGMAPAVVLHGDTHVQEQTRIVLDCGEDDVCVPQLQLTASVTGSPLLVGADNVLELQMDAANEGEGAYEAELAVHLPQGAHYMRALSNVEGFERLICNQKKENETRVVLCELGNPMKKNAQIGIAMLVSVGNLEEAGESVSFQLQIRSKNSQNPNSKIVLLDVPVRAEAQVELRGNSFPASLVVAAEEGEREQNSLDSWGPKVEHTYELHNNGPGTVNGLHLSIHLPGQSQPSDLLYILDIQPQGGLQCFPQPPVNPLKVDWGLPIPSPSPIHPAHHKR
T1 sequence (P08514 891-1039): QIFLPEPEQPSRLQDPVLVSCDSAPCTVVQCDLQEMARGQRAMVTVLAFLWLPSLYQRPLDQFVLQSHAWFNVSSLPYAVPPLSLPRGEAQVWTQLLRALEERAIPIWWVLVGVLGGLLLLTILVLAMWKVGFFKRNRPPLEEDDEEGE
T1 sequence (P05106 27-788): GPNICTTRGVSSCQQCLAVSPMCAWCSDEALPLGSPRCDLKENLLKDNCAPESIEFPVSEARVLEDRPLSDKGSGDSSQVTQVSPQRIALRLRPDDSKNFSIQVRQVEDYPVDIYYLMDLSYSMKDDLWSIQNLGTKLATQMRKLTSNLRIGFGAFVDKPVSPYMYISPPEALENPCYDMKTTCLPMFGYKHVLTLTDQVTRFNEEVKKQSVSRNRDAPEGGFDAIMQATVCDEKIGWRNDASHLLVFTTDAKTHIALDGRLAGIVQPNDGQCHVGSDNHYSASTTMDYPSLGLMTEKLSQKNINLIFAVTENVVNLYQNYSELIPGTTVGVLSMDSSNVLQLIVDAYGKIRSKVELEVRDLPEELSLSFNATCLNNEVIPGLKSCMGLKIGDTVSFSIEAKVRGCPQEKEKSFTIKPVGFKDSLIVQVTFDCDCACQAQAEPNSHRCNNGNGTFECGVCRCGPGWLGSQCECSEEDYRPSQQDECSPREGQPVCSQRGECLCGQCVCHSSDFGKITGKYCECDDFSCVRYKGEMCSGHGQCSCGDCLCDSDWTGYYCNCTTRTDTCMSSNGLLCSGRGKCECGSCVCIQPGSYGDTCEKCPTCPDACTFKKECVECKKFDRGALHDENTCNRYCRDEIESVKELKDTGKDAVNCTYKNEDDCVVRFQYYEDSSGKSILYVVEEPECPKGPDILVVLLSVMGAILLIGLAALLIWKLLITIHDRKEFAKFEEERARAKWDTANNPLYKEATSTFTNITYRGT

Work on `COc1ccc(S(=O)(=O)NC(Cc2ccc3cc(OCCN4CCNCC4)ccc3c2)C(=O)O)cc1` (stereo not shown) [ANTP266, 2-((4-methoxyphenyl)sulfonamido)-3-(6-(2-(piperazin-1-yl)ethoxy)naphthalene-2-yl) propanoic acid] yielded an IC50 of 370 nM.
